Laboratory results as given in patent publication US5948406A, “Immunogens, antibodies formed therefrom, and coating antigens useful in a diacylhydrazine immunoassay method” (Rohm and Haas Company, priority 1997, dated 1999).
≈ marks a conversion by molar mass, not a printed value.

Assays:
[1] = biological target: Protein A purified IgG (rabbit antibodies to diacyl hydrazines); test: Indirect immunoassay (inhibition of purified IgG binding to RH2703-BSA coating antigen); details: indirect assay; for IC50: RH2703-BSA coating antigen, absorbance at 410 nm; for Cross reactivity: IC50 of RH5992 / IC50 of analog x 100
Description: (§1) As used herein the term "IC50 " is defined as the concentration of the inhibitor required to reduce the absorbance to one-half the absorbance measured when no inhibitor was present. This determination is accomplished by plotting the percent (%) activity remaining versus the concentration of the inhibitor where the percent (%) activity remaining is given by:
(§2) % activity=(Ao -Ai /Ao)×100
(§3) where Ao is the measured absorbance when no inhibitor is present and Ai is the measured absorbance at the i^th concentration of inhibitor. The percent inhibition is then given by the relationship 100-(% activity).
The percent cross reactivity was derived by the equation: […]
where IC50,5992 is the IC50 concentration for RH5992 as determined above and IC50,analog is the IC50 concentration of the analog, i.e., RH2703, RH2651, and RH0345.
(§4) Sensitivity in ng is calculated from the concentration of the inhibitor determined from regression analysis of the standard deviations of the replicate analyses of the standard concentrations as described in the equation: […]
(§5) where S is the sensitivity in ng, Yint is the Y-intercept of the regression line from the standard deviations of the replicate analyses in absorbance units, m is the slope of the regression line in absorbance units per ng/ml and V is the volume of sample applied to the microtiter plate in ml.
RH2703-BSA was used as the coating antigen. The concentration required to give a readable response (0.3-0.5 absorbance units @ 410 nm) in the presence of the minimum quantity of antigen (RH2703) was optimized in the presence of a constant amount of protein A purified IgG (10 μl of a 20 μg/ml solution, 100 ng/well) by a checkerboard type assay (see Voller et al, Bull of World Health Organization, 53, 35 (1976)). The concentration of the Protein A purified IgG had been previously optimized in the presence of a constant amount of coating antigen (RH2703-BSA, 100 μl of a 10 μg/ml solution) to give a readable response to the minimum amount of RH5992.
Antibody concentration was optimized to be approximately 20 μg/ml (100 ng per micro well) and the coating antigen was optimized to be 25 ng/ml or 2.5 ng per micro well. When converted to a molar basis and assuming a hapten/protein binding ratio of 55, the hapten is in a three-fold molar excess of the IgG added.
The percent inhibition for RH2703, RH2651, RH5992, RH0345 and RH2485 were determined to the protein IgG in the presence of the optimized concentration of RH2703-BSA coating antigen. Each test substance was assayed at seven concentrations ranging from no test substance 0 ng/ml to 1000 ng/ml. The assay at each concentration was replicated seven times. Antigen negative and antibody negative wells provided negative controls while KLH/anti-KLH wells were used as positive controls.
Serial dilutions of the test substance stock solutions were made with coating buffer containing 0.1% TWEEN 20 polysorbate to give 1000 ng/ml, 100 ng/ml, 10 ng/ml, 1 ng/ml, 0.1 ng/ml, and 0.01 ng/ml assay concentrations. Coating buffer w/0.1% TWEEN 20 polysorbate was used as the 0 ng/ml assay concentration. The test substance assay concentrations (190 μl each) were incubated with 10 μl of the protein A IgG ([…]) for one hour at room temperature. After the incubation period, 100 μl of the test substance-IgG mixture was transferred to the appropriate microtiter well. The microtiter wells had been previously coated with the optimized concentration of RH2703-BSA and the excess protein binding sites were blocked with 0.3 ml of a 1% BSA solution in coating buffer. The plates were incubated for an additional hour at room temperature.
After the second incubation the plates were washed and goat, anti-rabbit immunoglobulin conjugated to alkaline phosphatase (0.6 mg reconstituted with 1 ml 50% glycerol and subsequently diluted with 1:5000 with blocking solution Pierce Chemical Co) was added. The plates were incubated, washed and PNPP substrate added as described in Example 5. […]

[2] = system: ^2651 IgG (coating antibody); test: Direct assay (competition with 2651-HRP for immobilized ^2651 IgG coating antibody); format: binding, rabbit; details: for IC50: 2651-HRP label, absorbance at 450 nm; for Cross reactivity, RH2651: relative to RH2651; for Cross reactivity, RH5992: relative to RH5992
Description: as §1, §2, §3, §4, §5
A microplate was coated with ^2651 IgG. Starting with column 1, 100 μl of 10 μg/ml ^2651 IgG were added to each well and 1:2 serial dilutions made across the plate. The plate was sealed and stored at 4° C. until ready to use. After emptying, the plate was washed with 0.01% Tween 20 in PBS and blocked with 1% BSA in PBS for about 1 hour at room temperature. After blocking, the plate was emptied and 150 μl PBS added to each well. Then 50 μl of 2651-HRP dilutions were added down the plate starting with 10 μg/ml and continuing with 1:2 dilutions down the plate. After a 1 hour room temperature incubation, the plate was washed as before and 150 μl 1-Step® Slow-TMB (peroxidase substrate from Pierce Chemical Co.) was added to each well. After one hour development, 150 μl of 1N H2 SO4 was added to stop the reaction and the absorbance of each well measured at 450 nm with the Dynatech MR5000 Microplate Reader. Controls included wells with no coating antibody and wells in which no 2651-HRP were added. A ^2651 IgG coating antibody concentration of 0.625 μg/ml and a 2561-HRP concentration of 1.25 μg/ml were determined to be the optimum concentration for use with 1-Step® Slow-TMB substrate.
The wells of a microplate were coated with 100 μl each of 0.625 μg/ml ^2651 IgG. One row was left uncoated as a control. The plate was kept at 4° C. overnight. The following day the plate was washed with 0.01% Tween 20 polysorbate in PBS and blocked with 1% BSA in PBS for at least 30 minutes. Standard solutions of RH5992, RH2651, RH2703, and RH2485 were made from 1 mg/ml stock solutions. Standard solutions of RH0345 were prepared from a 0.1 ng/ml, 0.5 ng/ml, 1 ng/ml, 5 ng/ml, 10 ng/ml, 50 ng/ml, and 100 ng/ml. After the blocking lo solution was emptied, 150 μl of the standards were added to the appropriate wells. For the zero control 150 μl of PBS was added. After a 45 minute incubation at room temperature, 50 μl of 1.25 μg/ml 2651-HRP were added to each well and the plate agitated to mix the contents. […] After incubation for 45 minutes at room temperature, the plate was washed as before and 150 μl 2651-HRP was added to each well and the plate agitated to mix the contents. […] After incubation for 45 minutes at room temperature, the plate was washed as before and 150 μl Step 1® Slow TMB added to each well. After 2 hours at room temperature, 150 μl 1N H2 SO4 was added to each well and the absorbance read at 450 nm with the Dynatech MR5000 Microplate Reader.
FIG. 16a illustrates a typical curve generated from the assay. The linear portion of the curve is visualized between 0.01 ng/ml and 10 ng/ml. A typical standard curve in the linear range of the assay is illustrated by FIG. 16b using inverse absorbances to generate a positive slope. The limit of detection was calculated as 0.096 ng/ml and the sensitivity calculated as 0.005 ng for RH5992.

Row | Structure (SMILES) | IC50 [1] [ng/mL] | Cross reactivity [1] [%] | IC50 [2] [ng/mL] | Cross reactivity, RH2651 [2] [%] | Cross reactivity, RH5992 [2] [%]
1 | CC(C)(C)N(NC(=O)c1ccc(Cl)cc1)C(=O)c1ccccc1 [RH0345] | 6.5 | 9 | 16.94 (≈ 0.0512 µM) | 6.9 | 21.5
2 | COc1cccc(C(=O)NN(C(=O)c2cc(C)cc(C)c2)C(C)(C)C)c1C [RH2485] | 0.05 | – | 4.64 (≈ 0.0126 µM) | 25 | 78.4
3 | Cc1cc(C)cc(C(=O)N(NC(=O)c2ccc(C(=O)O)cc2)C(C)(C)C)c1 [RH2651] | 1.59 | 38 | 1.17 (≈ 0.00318 µM) | 100 | 311
4 | Cc1cc(C)cc(C(=O)N(NC(=O)c2ccc(CC(=O)O)cc2)C(C)(C)C)c1 [RH2703] | 1.13 | 54 | 2.10 (≈ 0.00549 µM) | 56 | 173
5 | CCc1ccc(C(=O)NN(C(=O)c2cc(C)cc(C)c2)C(C)(C)C)cc1 [RH5992] | 0.61 | 100 | 3.64 (≈ 0.0103 µM) | 32 | 100
